What was measured:
[1] = test system: PLCs containing PMCs; test: NT degradation by peritoneal lavage cells (PLCs) containing peritoneal mast cells; assay type: cell-based, mouse; conditions: BAPTA-AM 50 mM pre-treatment; NT 10 μM, 30 min at 37° C.
Procedure: FIG. 5. Neurolysin and carboxypeptidase inhibitors prevent NT degradation by peritoneal mast cells. Kit^+/+ PLCs containing 5×10^4 PMCs were pre-treated for 15 min at 37° C. with one of the following protease inhibitors: chymostatin (chym, chymase inhibitor at 100 μM), CFp-Ala-Ala-Phe-pAB (CFp, […] at 10 μM only for PLCs), potato carboxypeptidase inhibitor (PCI, carboxypeptidase inhibitor at 10 μg/ml) and phosphodiepryl 03 (p03, neurolysin inhibitor at 100 nM for PLCs. Cells were then incubated with NT (10 μM) for 30 min at 37° C. Results are the percentage of NT remaining after incubation with cells compared to the starting concentration of NT (n=4-9 per group).
FIG. 12. (a), PLCs containing 1×10^4 PMCs obtained from either wild type C57BL/6 mice, Ntsr1-deficient (Ntsr1^−/−) mice or Ntsr2-deficient (Ntsr2^−/−) mice were incubated for 2 h with ^3H-5-hydroxytryptamine (3H-serotonin) at 37° C. and stimulated for 15 min at 37° C. with either ET-1 (4 μM) or NT (10 μM). (b), PLCs containing 1×10^4 PMCs obtained from C57BL/6 mice were incubated for 2 h with ^3H-serotonin and stimulated for 15 min with either ET-1 (4 μM) or NT (10 μM). In a separate set of experiments, cells were pre-incubated with BAPTA-AM (Sigma) ([…], 15 min at […]) before the addition of the stimuli. Results are mean ±SEM of 3 experiments. (c), mMC-CPA activity was measured in supernatants obtained from Kit^+/+ PLCs containing 5×10^4 PMCs that were stimulated for 30 min at 37° C. with either ET-1 (4 μM) or NT (10 μM). (d), PLCs containing 5×10^4 PMCs from C57BL/6J mice were pre-treated for 15 min at 37° C. with BAPTA-AM ([…], a Ca^2+ chelator that can reduce MC degranulation) and then incubated with NT (10 μM) for 30 min at 37° C. Results are expressed as the percentage of NT remaining after incubation with cells compared to that in samples of NT incubated in vehicle alone at 37° C. (data were pooled from triplicate determinations in two independent experiments that gave similar results). (e), Expression of mRNA for NT-receptors in the AtT20 neuroendocrine cell line, the mast cell line C1.MC/C57.1, C57BL/6J BMCMCs, Kit^+/+ BMCMCs and peritoneal mast cells purified from Kit^+/+ mice (PMCs).
NT, ET-1, C-reactive protein, and TNF measurements. Concentrations of NT, C-reactive protein, ET-1 and TNF were measured by ELISA (Bachem Peninsula Labs for NT; Biomedica, Vienna for C-reactive protein and ET-1; BD Biosciences for TNF). […] The detection limits for the ELISA kits were: 24 fmol/ml (NT), 0.048 fmol/ml (ET-1), 0.124 ng/ml (C-reactive protein) and […] (human TNF).

[2] = test system: PMCs; test: 3H-serotonin release from peritoneal mast cells; assay type: cell-based, mouse; conditions: BAPTA-AM, 30 min; ET-1 4 μM
Text: Results are mean ±SEM of 3 experiments. […] (data were pooled from triplicate determinations in two independent experiments that gave similar results).

[3] = target: NTR2 (Homo sapiens, UniProt O95665); conditions: cited from earlier work
[4] = test system: NTR1; conditions: cited from earlier work
[5] = test system: mMC-CPA; test: CPA enzymatic activity in shRNA-transduced BMCMCs; assay type: cell-based, mouse
Procedure: (§1) FIG. 9. Use of shRNA approach to knock-down NLN and mMC-CPA in BMCMCs. Protein expression for: (a), NLN and (b), mMC-CPA; and (c), mMC-CPA activity in Kit^+/+ BMCMCs treated with either empty vector or shRNAs. (d), mMCP-4 and mMCP-5 protein expression in Kit^+/+ BMCMCs treated with empty vector, NLN-shRNA or mMC-CPA-shRNA.
CPA enzymatic activity assay. CPA enzymatic activity was assessed by measuring reduction of absorbance of a chromogenic substrate (N-[4-Methoxyphenylazoformyl]-Phe-OH) (Bachem Peninsula Labs) specific for CPA as previously described.

[6] = test system: mMC-CPA; test: shRNA knock-down of mMC-CPA protein in BMCMCs (Western blot); assay type: cell-based, mouse; conditions: Kit+/+ BMCMCs, lentiviral shRNA
Text: as §1
Lentiviral vector production. pLentiLox 3.7 (pLL3.7), a vector engineered to co-express enhanced green fluorescent protein (GFP) as a reporter gene, that permits infected cells to be tracked by flow cytometry, was digested with Xhol and Hpal and the annealed oligos (SEQ ID NO. 3) 5′-t-[…]-ttcaagaga-[…]-ttttttc-3′ and (SEQ ID NO. 4) 5′-tcgagaaaaaa-[…]-tctcttgaa-[…]-a-3′ for mMC-CPA and (SEQ ID NO. 5) 5′-t-[…]-ttcaagaga-[…]-ttttttc-3′ (SEQ ID NO. 6) 5′-tcgagaaaaaa-[…]-tctcttgaa-[…]-a-3′ for NLN were ligated into pLL3.7 to yield a directed shRNA-producing vector. The 19 nt target sequences are indicated in capitals in the oligonucleotide sequence. Active viral stocks were created and concentrated as previously described. Briefly, 293T cells were transfected with the transfer vector plasmid pLL3.7-mMC-CPA or pLL3.7-NLN or pLL3.7 (empty vector), the VSV-G envelope-encoding plasmid pMD.G, and the packaging plasmid CMVΔR8.74 using the calcium phosphate method. […]

[7] = test system: Kit+/+ BMCMCs; test: Beta-hexosaminidase release of BMCMCs upon FcεRI cross-linking; assay type: cell-based, mouse; conditions: vs empty vector-treated cells
Procedure: FIG. 10. BMCMCs treated with shRNAs degranulate after high affinity Fc receptor for IgE (FcεRI) cross-linking to the same extent than BMCMCs treated with empty vector. Beta-hexosaminidase release by Kit^+/+ BMCMCs treated with empty vector, NLN-shRNA for NLN or mMC-CPA-shRNA. Cells (1.25×10^5) were sensitized with IgE mAb to dinitro-phenol (DNP, 2 μg/ml) overnight at 37° C. and then were challenged with DNP-human serum albumin (DNP-HSA, 10 ng/ml) for 30 min at 37° C.
Beta-hexosaminidase release. Beta-hexosaminidase was measured on an enzyme-linked immunosorbent assay “reader” that detects the hydrolysis product of p-nitrophenyl-N-acetyl-b-D-glucosamine (Sigma) used as a substrate.

[8] = test system: Kit+/+ BMCMCs; test: NT degradation by A23187-activated shRNA-transduced BMCMCs; assay type: cell-based, mouse; conditions: A23187 5 μM; NT 10 μM, 30 min at 37° C.
Procedure: FIG. 8. MC-associated neurolysin (NLN) contributes to the MCs' ability to reduce NT-induced hypotension. (a) Identification of NLN in the membrane and cytosol fractions of C1.MC/C57.1 MCs and C57BL/6J BMCMCs. (b) Degradation of NT (10 μM) by membrane and cytosol preparations obtained from Kit^+/+ BMCMCs (2×10^6 cells/preparation) that were pre-treated with either vehicle or with Pro-Ile (10 μM, 15 min at […]). Results are expressed as the percentage of NT remaining after incubation with membrane or cytosol preparations compared to that in samples of NT incubated in vehicle alone (n=3). […] Results are expressed as the percentage of NT remaining in the samples compared to that in samples of NT incubated in vehicle alone at 37° C. […] (e) Changes in MAP versus baseline levels (=“0”, measured 3 min after injection of 300 μl saline, i.p.) at various times after injection of NT (6 nmol in 300 μl saline, i.p.) in Kit^W/W-v mice which had been engrafted i.p. with Kit^+/+ BMCMCs treated with either empty vector (empty vector MCs→Kit^W/W-v), NLN-shRNA (NLN-shRNA MCs→Kit^W/W-v) or mMC-CPA-shRNA (mMC-CPA-shRNA MCs→Kit^W/W-v). […]
NT, ET-1, C-reactive protein, and TNF measurements. Concentrations of NT, C-reactive protein, ET-1 and TNF were measured by ELISA (Bachem Peninsula Labs for NT; Biomedica, Vienna for C-reactive protein and ET-1; BD Biosciences for TNF). […]

NTR2, sequence (O95665 whole entry, species assumed): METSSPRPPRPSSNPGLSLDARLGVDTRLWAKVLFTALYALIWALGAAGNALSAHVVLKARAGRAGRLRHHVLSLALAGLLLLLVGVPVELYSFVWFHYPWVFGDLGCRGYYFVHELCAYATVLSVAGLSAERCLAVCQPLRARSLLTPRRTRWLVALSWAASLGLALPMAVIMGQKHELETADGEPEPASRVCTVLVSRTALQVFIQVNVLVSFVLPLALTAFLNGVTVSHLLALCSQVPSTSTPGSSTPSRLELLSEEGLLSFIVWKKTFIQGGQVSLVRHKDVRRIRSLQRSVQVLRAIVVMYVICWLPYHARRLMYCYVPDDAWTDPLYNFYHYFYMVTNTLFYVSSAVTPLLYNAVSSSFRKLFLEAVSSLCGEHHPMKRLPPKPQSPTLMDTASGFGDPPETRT

Molecule: CC(=O)OCOC(=O)CN(CC(=O)OCOC(C)=O)c1ccccc1OCCOc1ccccc1N(CC(=O)OCOC(C)=O)CC(=O)OCOC(C)=O [BAPTA-AM]
- ability of PMCs to degrade NT [1]: did not reduce the ability of PMCs to degrade NT
- ET-1-induced PMC serotonin release [2]: markedly inhibited

Molecule: COc1cccc(OC)c1-c1cc(C(=O)NC2(C(=O)O)C3CC4CC(C3)CC2C4)nn1-c1ccc(C(=O)N(C)CCCN(C)C)cc1C(C)C (stereo not drawn) [SR142948A]
- affinity for NTR2 [3]: nanomolar affinity
- affinity for NTR1 relative to SR48692 [4]: higher affinity for NTR1 than SR48692
- affinity for NTR1 ([4]; different tissues and cells from various species): nanomolar affinity

B1: mMC-CPA-shRNA: lentivirus-delivered short hairpin RNA silencing mMC-CPA, SEQ ID NO. 3/4 (nucleic acid)
chain 1: TGAAACAGTTTGATGTGAAATTCAAGAGATTTCACATCAAACTGTTTCTTTTTTC
chain 2: TCGAGAAAAAAGAAACAGTTTGATGTGAAATCTCTTGAATTTCACATCAAACTGTTTCA
- mMC-CPA enzymatic activity [5]: substantially reduced
- reduction in mMC-CPA protein expression level [6]: 90%
- degranulation upon FcεRI cross-linking [7]: degranulated to the same extent
- ability to degrade NT after activation with A23187 [8]: significantly reduced ability to degrade NT

Source: patent US8449864B2 (The Board of Trustees of the Leland Stanford Junior …, priority 2006, dated 2013)
